Values quoted from earlier work, collected in patent US6838238B1, “Morphatides: novel shape and structure libraries” (Invitrogen Corporation, priority 1996, dated 2005).

Details: ionizes by hydration to yield the tetrahedral phenylboronate anion

For OB(O)c1ccccc1 [Phenylboronic acid], the pKa is given as 8.86.
